Laboratory results: US5736545A, “Azolyl piperazinyl phenyl oxazolidinone antimicrobials” (Pharmacia & Upjohn Company, priority 1997, dated 1998)
Values after ≈ are worked out from the molar mass of the structure shown. Read-outs that look alike come from different tables or passages of the source.

Key:
S. aureus UC ® 9213 = test: In vitro MIC by agar dilution (NCCLS), Gram-positive bacteria: S. aureus; assay type: cell-based, Staphylococcus aureus; conditions: for MIC: Staphylococcus aureus
From the text: The oxazolidinone antibacterial agents of this invention have useful activity against a variety of organisms. The in vitro activity of compounds of this invention can be assessed by standard testing procedures such as the determination of minimum inhibitory concentration (MIC) by agar dilution as described in "Methods for Dilution Antimicrobial Susceptibility Tests for Bacteria That Grow Aerobically" (MFT) published January 1983 by the National Committee for Clinical Laboratory Standards, 771 East Lancaster Avenue, Villanova, Pa. 19084, USA. The activity of selected compounds of this invention against Staphylococcus aureus and Streptococcus pneumoniae are shown in Table 1.
^a Minimum inhibitory concentration: lowest concentration of drug
(μg/mL) that inhibits visible growth of the organism.

E. Faecalis UC ® 9217 = test: In vitro MIC by agar dilution (NCCLS), Gram-positive bacteria: E. faecalis; assay type: cell-based; conditions: for MIC: Enterococcus faecalis
[1] = UC9213, S. aureus UC 9213, agar dilution, read-out: MIC (minimum inhibitory concentration: lowest concentration of drug that inhibits visible growth of the organism)
[2] = UC9217, E. Faecalis UC 9217, agar dilution, read-out: MIC (minimum inhibitory concentration: lowest concentration of drug that inhibits visible growth of the organism)

Compound	MIC (S. aureus UC ® 9213; [1]) [µg/mL]	MIC (E. Faecalis UC ® 9217; [2]) [µg/mL]	also measured
CN[C@H](CC(C)C)C(=O)N[C@H]1C(=O)N[C@@H](CC(N)=O)C(=O)N[C@H]2C(=O)N[C@H]3C(=O)N[C@H](C(=O)N[C@H](C(=O)O)c4cc(O)cc(O)c4-c4cc3ccc4O)[C@H](O)c3ccc(c(Cl)c3)Oc3cc2cc(c3O[C@@H]2O[C@H](CO)[C@@H](O)[C@H](O)[C@H]2O[C@H]2C[C@](C)(N)[C@H](O)[C@H](C)O2)Oc2ccc(cc2Cl)[C@H]1O [Vancomycin, reference compound]	–	–	MIC (S. aureus UC ® 9213; UC9213, read-out: MIC (minimum inhibitory concentration: lowest concentration of drug that inhibits visible growth of the organism)): 1 µg/mL (≈ 0.69 µM); MIC (E. Faecalis UC ® 9217; UC9217, read-out: MIC (minimum inhibitory concentration: lowest concentration of drug that inhibits visible growth of the organism)): 4 µg/mL (≈ 2.76 µM)
CC(=O)NC[C@H]1CN(c2ccc(N3CCN(c4nnc(C(F)(F)F)s4)CC3)c(F)c2)C(=O)O1 [Example 20, (S)--N--[[3-[3-Fluoro-4-[4-(5-trifluoromethyl-1,3,4-thiadiazol-2-yl)-1-piperazinyl]phenyl]-2-oxo-5-oxazolidinyl]methyl]acetamide]	4 (≈ 8.19 µM)	2 (≈ 4.09 µM)	–
CC(=O)NC[C@H]1CN(c2ccc(N3CCN(C4=NC(=O)CS4)CC3)c(F)c2)C(=O)O1 [Example 15]	2 (≈ 4.59 µM)	1 (≈ 2.3 µM)	–
CC(=O)NC[C@H]1CN(c2ccc(N3CCN(c4nc(=O)n(-c5ccccc5)s4)CC3)c(F)c2)C(=O)O1 [Example 26, (S)--N--[[3-[3-Fluoro-4-[4-(2-phenyl-3-oxo-1,2,4-thiadiazol-5-yl)-1-piperazinyl]phenyl]-2-oxo-5-oxazolidinyl]methyl]acetamide]	8 (≈ 15.6 µM)	4 (≈ 7.8 µM)	–
CC(=O)NC[C@H]1CN(c2ccc(N3CCN(c4nnc(N)s4)CC3)c(F)c2)C(=O)O1 [Example 18]	2 (≈ 4.59 µM)	2 (≈ 4.59 µM)	–
CC(=O)NC[C@H]1CN(c2ccc(N3CCN(c4nnc(C)o4)CC3)c(F)c2)C(=O)O1 [Example 27, (S)--N--[[3-[3-Fluoro-4-[4-(5-methyl-1,3,4-oxadiazol-2-yl)-1-piperazinyl]phenyl]-2-oxo-5-oxazolidinyl]methyl]acetamide]	4 (≈ 9.56 µM)	4 (≈ 9.56 µM)	–
CC(=O)NC[C@H]1CN(c2ccc(N3CCN(c4nccs4)CC3)c(F)c2)C(=O)O1 [Example 5, (S)--N--[[3-[3-Fluoro-4-[4-(2-thiazolyl)-1-piperazinyl]phenyl]-2-oxo-5-oxazolidinyl]methyl]acetamide]	2 (≈ 4.77 µM)	1 (≈ 2.38 µM)	–
CC(=O)NC[C@H]1CN(c2ccc(N3CCN(c4nc5ccccc5o4)CC3)c(F)c2)C(=O)O1 [Example 3, (S)--N--[[3-[4-[4-(2-Benzoxazolyl)-1-piperazinyl]-3-fluorophenyl]-2-oxo-5-oxazolidinyl]methyl]acetamide]	2 (≈ 4.41 µM)	2 (≈ 4.41 µM)	–
CC(=O)NC[C@H]1CN(c2ccc(N3CCN(C4=NCCO4)CC3)c(F)c2)C(=O)O1 [Example 12, (S)--N--[[3-[4-[4-(4,5-Dihydro-2-oxazolyl)-1-piperazinyl]-3-fluorophenyl]-2-oxo-5-oxazolidinyl]methyl]acetamide]	32 (≈ 78.9 µM)	4 (≈ 9.87 µM)	–
CC(=O)NC[C@H]1CN(c2ccc(N3CCN(c4nc5cc([N+](=O)[O-])ccc5o4)CC3)c(F)c2)C(=O)O1 [Example 4, (S)--N--[[3-[3-Fluoro-4-[4-(5-nitrobenzoxazol-2-yl)-1-piperazinyl]phenyl]-2-oxo-5-oxazolidinyl]methyl]acetamide]	1 (≈ 2.01 µM)	1 (≈ 2.01 µM)	–
CC(=O)NC[C@H]1CN(c2ccc(N3CCN(c4nc5cccc(F)c5o4)CC3)c(F)c2)C(=O)O1 [Example 9, (S)--N--[[3-[3-Fluoro-4-[4-(7-fluorobenzoxazol-2-yl)-1-piperazinyl]phenyl]-2-oxo-5-oxazolidinyl]methyl]acetamide]	1 (≈ 2.12 µM)	1 (≈ 2.12 µM)	–
CC(=O)NC[C@H]1CN(c2ccc(N3CCN(c4nc5ccc([N+](=O)[O-])cc5s4)CC3)c(F)c2)C(=O)O1 [Example 6, (S)--N--[[3-[3-Fluoro-4-[4-(6-nitrobenzothiazol-2-yl)-1-piperazinyl]phenyl]-2-oxo-5-oxazolidinyl]methyl]acetamide]	0.5 (≈ 0.972 µM)	0.5 (≈ 0.972 µM)	–
CC(=O)NC[C@H]1CN(c2ccc(N3CCN(c4nc5ccc(F)cc5o4)CC3)c(F)c2)C(=O)O1 [Example 8, (S)--N--[[3-[3-Fluoro-4-[4-(6-fluorobenzoxazol-2-yl)-1-piperazinyl]phenyl]-2-oxo-5-oxazolidinyl]methyl]acetamide]	2 (≈ 4.24 µM)	1 (≈ 2.12 µM)	–
CC(=O)NC[C@H]1CN(c2ccc(N3CCN(c4nc5cc(F)ccc5o4)CC3)c(F)c2)C(=O)O1 [Example 7, (S)--N--[[3-[3-Fluoro-4-[4-(5-fluorobenzoxazol-2-yl)-1-piperazinyl]phenyl]-2-oxo-5-oxazolidinyl]methyl]acetamide]	4 (≈ 8.48 µM)	4 (≈ 8.48 µM)	–
CC(=O)NC[C@H]1CN(c2ccc(N3CCN(c4nncs4)CC3)c(F)c2)C(=O)O1 [Example 16, (S)--N--[[3-[3-Fluoro-4-[4-(1,3,4-thiadiazol-2-yl)-1-piperazinyl]phenyl]-2-oxo-5-oxazolidinyl]mehtyl]acetamide]	1 (≈ 2.38 µM)	1 (≈ 2.38 µM)	–
CC(=O)NC[C@H]1CN(c2ccc(N3CCN(c4nnnn4-c4ccccc4)CC3)c(F)c2)C(=O)O1 [Example 13]	4 (≈ 8.32 µM)	4 (≈ 8.32 µM)	–
CC(=O)NC[C@H]1CN(c2ccc(N3CCN(c4nnc(C)s4)CC3)c(F)c2)C(=O)O1 [Example 17, (S)--N--[[3-[3-Fluoro-4-[4-(5-methyl-1,3,4-thiadiazol-2-yl)-1-piperazinyl]phenyl]-2-oxo-5-oxazolidinyl]methyl]acetamide]	0.5 (≈ 1.15 µM)	1 (≈ 2.3 µM)	–
(S)--N--[[3-[4-[3-Fluoro-4-[(methyl-5-tetrazolyl)-1-piperazinyl]phenyl]-2-oxo-5-oxazolidinyl]methyl]acetamide [Example 14]	–	–	MIC (minimum inhibitory concentration: lowest concentration of drug that inhibits visible growth of the organism) (S. aureus UC ® 9213; S. aureus UC 9213, agar dilution): 4 µg/mL; MIC (minimum inhibitory concentration: lowest concentration of drug that inhibits visible growth of the organism) (E. Faecalis UC ® 9217; E. Faecalis UC 9217, agar dilution): 2 µg/mL
CCOC(=O)c1nnc(N2CCN(c3ccc(N4C[C@H](CNC(C)=O)OC4=O)cc3F)CC2)s1 [Example 19, (S)--N--[[3-[4-[4-(5-Ethoxycarbonyl-1,3,4-thiadiazol-2-yl)-3-fluoro-1-piperazinyl]phenyl]-2-oxo-5-oxazolidinyl]methyl]acetamide]	4 (≈ 8.12 µM)	2 (≈ 4.06 µM)	–
CC(=O)NC[C@H]1CN(c2ccc(N3CCN(c4nc5ccc(F)c(F)c5o4)CC3)c(F)c2)C(=O)O1 [Example 10, (S)--N--[[3-[3-Fluoro-4-[4-(6,7-difluorobenzoxazol-2-yl)-1-piperazinyl]phenyl]-2-oxo-5-oxazolidinyl]methyl]acetamide]	2 (≈ 4.09 µM)	2 (≈ 4.09 µM)	–
CC(=O)NC[C@H]1CN(c2ccc(N3CCN(C4=NCCS4)CC3)c(F)c2)C(=O)O1 [Example 11, (S)--N--[[3-[4-[4-(4,5-Dihydro-2-thiazolyl)-1-piperazinyl]-3-fluorophenyl]-2-oxo-5-oxazolidinyl]methyl]acetamide]	2 (≈ 4.74 µM)	1 (≈ 2.37 µM)	–
CC(=O)NC[C@H]1CN(c2ccc(N3CCN(c4nc5ccccc5s4)CC3)c(F)c2)C(=O)O1 [Example 1, (S)--N--[[3-[4-[4-(2-Benzothiazolyl)-1-piperazinyl]-3-fluorophenyl]-2-oxo-5-oxazolidinyl]methyl]acetamide]	4 (≈ 8.52 µM)	2 (≈ 4.26 µM)	–
CC(=O)NC[C@H]1CN(c2ccc(N3CCN(c4n[nH]c(=O)s4)CC3)c(F)c2)C(=O)O1 [Example 24, (S)--N--[[3-[3-Fluoro-4-[4-(5-oxo-1,3,4-thiadiazol-2-yl)-1-piperazinyl]phenyl]-2-oxo-5-oxazolidinyl]methyl]acetamide]	1 (≈ 2.29 µM)	1 (≈ 2.29 µM)	–
CC(=O)NC[C@H]1CN(c2ccc(N3CCN(c4nc(C)ns4)CC3)c(F)c2)C(=O)O1 [Example 25]	2 (≈ 4.6 µM)	1 (≈ 2.3 µM)	–
CC(=O)NC[C@H]1CN(c2ccc(N3CCNCC3)c(F)c2)C(=O)O1 [XLII, reference compound]	> 64	32 (≈ 95.1 µM)	–
CC(=O)NC[C@H]1CN(c2ccc(N3CCN(c4ncc([N+](=O)[O-])s4)CC3)c(F)c2)C(=O)O1 [Example 2, (S)--N--[[3-[3-Fluoro-4-[4-(5-nitrothiazol-2-yl)-1-piperazinyl]phenyl]-2-oxo-5-oxazolidinyl]methyl]acetamide]	2 (≈ 4.31 µM)	2 (≈ 4.31 µM)	–
